From patent US8273744B2, “AMPK modulators” (priority 2008, dated 2012) come the findings set out here.

pEC50: −log10 of the molar value. Where only a bound is given, the exact number is not on record here.

This test relates to AMPK. Description: In vitro assay of AMPK activity (AlphaScreen, phosphorylation of human ACC1 fragment aa 1-120). The class given is biochemical. The following applies: AMPK partially purified from HEK cells, 100 uM ATP, room temperature, 60 minutes, read-out: ED50 (the source's name). As for the experimental part:
AMPK activity was measured by the phosphorylation of the amino-teminal fragment of human acetyl CoA carboxylase-type 1, amino acids 1-120. The fragment was expressed as a biotinylated fusion protein in E. coli. The enzyme assay was conducted in a 5 ul reaction mixture containing 60 mM HEPES, pH7.0, 50 mM NaCL, 1 mM DTT, 5 mM MgCL2, 0.05% Tween-20, 100 uM ATP and with 25 uM AMP as a positive control. The reaction was carried out at room temperature for 60 minutes and stopped by addition of 5 ul of stop solution consisting of 20 mM EDTA, 0.1% BSA, 1% Triton-X-100, 0.01% Tween-20, 100 mM Tris pH8.0, 1:5,000 dilution of internally producted anti-pS79 (acetyl CoA carboxylase-1) purified rabbit polyclonal antibody, 40 ug/ml of AlphaScreen (Perkin Elmer) Acceptor beads and 40 ug/ml of AlphaScreen (Perkin Elmer) donor beads. The reaction mixture was further incubated at RT for 2 hours and analyzed on Fusion-Alpha microplate analyzer.
The AMPK assay was performed in a 25 ul reaction volume with the same reaction buffer as AMPK alpha assay at 30 C for 30 minutes. The reaction was stopped with SDS-PAGE sample buffer. The phosphorylated-GST-ACC was subjected to western blot analysis with anti-phospho-serine 79-ACC1 antibody (Cell Signaling Technologies). AMPK used in the assays described above was partially purified (Blazquez, C. et. al.).
The AMP-activated protein kinase is involved in the regulation of ketone body production by astrocytes. J. Neurochem. 73: 1674 (1999)) from HEKs (a human embryonic kidney cell line) and unless otherwise specified, chemicals used in the above assay were supplied by Sigma.
On the technique in general: In Alpha technology, singlet oxygen from a donor bead excites a nearby acceptor bead.
For `O=Cc1c[nH]c2ccc(-c3ccc(-c4ccccc4O)cc3)cc12` [Compound 4, 5-(2-Hydroxybiphenyl)-1H-indole-3-carbaldehyde], the pEC50 was 4.30 to 5.00.

For the compound `Oc1ccccc1-c1ccc(-c2ccc3[nH]ccc3c2)cc1` [Compound 1, 5-(2-Hydroxybiphenyl)-1H-indole], the pEC50 was 4.30 to 5.00.

Consider `O/N=C/c1c[nH]c2ccc(-c3ccc(-c4ccccc4O)cc3)cc12` [Compound 6, 5-(2-Hydroxybiphenyl)-1H-indole-3-carbaldehyde oxime], for which the pEC50 is no more than 4.30.

Regarding `N#Cc1c(O)nc2nc(-c3ccc(-c4ccccc4O)cc3)[nH]c2c1O` [Compound 7, 3-(2-Hydroxybiphenyl)-4,6-dihydroxyimidazo[5,4-b]pyridine-5-carbonitrile], the pEC50 is no less than 5.00. With `N#Cc1c(O)nc2cccc(-c3ccc(-c4ccccc4O)cc3)c2c1O` [Compound 3, 5-(2-Hydroxybiphenyl)-2,4-dihydroxyquinoline-3-carbonitrile], the pEC50 is no less than 5.00. To `N#Cc1c(O)nc2ccc(-c3ccc(-c4ccccc4O)cc3)cc2c1O` [Compound 2, 6-(2-Hydroxybiphenyl)-2,4-dihydroxyquinoline-3-carbonitrile] belongs no less than 5.00; to `N#Cc1c(O)cc2onc(-c3ccc(-c4ccccc4O)cc3)c2c1O` [Compound 9, 3-(2-Hydroxybiphenyl)-4,6-dihydroxyisoxazolo[5,4-b]pyridine-5-carbonitrile], 4.30 to 5.00.

On to `N#Cc1c[nH]c2ccc(-c3ccc(-c4ccccc4O)cc3)cc12` [Compound 5, 5-(2-Hydroxybiphenyl)-1H-indole-3-carbonitrile], for which the pEC50 was no less than 5.00. `N#Cc1c(O)nc2ncc(-c3ccc(-c4ccccc4O)cc3)cc2c1O` [Compound 8, 6-(2-Hydroxybiphenyl)-2,4-dihydroxy-1,8-naphthyridine-3-carbonitrile]: the pEC50 is no less than 5.00.
